# Laboratory results taken from US7060486B2, “Inhibition of sulfate-reducing-bacteria-mediated degradation using bacteria which secrete antimicrobials” (priority 1998, dated 2006).
# Entries after “also recorded” stand apart in the source; their conditions may differ. Bridge positions count the residues as written; N and C are the ends. Square brackets hold non-standard residues; d marks the D form. Peptide text beside a SMILES is read from it. * marks the point of attachment. X1 = CC[C@H](C)CCCCC(=O)*; Dab = NCC[C@H](N)C(=O)O
# Experiments:
# D. vulgaris (ATCC 29579) = experiment: SRB inhibitory assay: viability after one-hour exposure, MPN technique; format: cell-based; details: one-hour exposure
# Method: (§1) D. vulgaris (ATCC 29579) and D. gigas (ATCC 19364) were obtained from the American Type Culture Collection and cultivated in 15 mL screwcap tubes with 10 mL of modified Baar's medium (ATCC medium 1249) supplemented with 100 μL each of the oxygen-scavengers 4% sodium sulfide and Oxyrase (Oxyrase Inc., Mansfeld, Ohio). Initial cultures were grown from −85° C. glycerol stocks; all subsequent cultures were grown with a 3% inoculum from the initial culture maintained at 30° C. without shaking. […] SRB were also cultured periodically in the presence of 0.1% ferrous ammonium sulfate, and the presence of these sulfate-reducers was confirmed by the detection of black iron sulfide in the culture tubes. The desulfoviridin assay was also performed after each MPN assay to confirm the presence of D. vulgaris or D. gigas by its red color under UV light due to the release of the chromophore of the pignment desulfoviridin. (Postgate, 1984).
# (§2) For determining the viability indices (Romeo, et al., 1988) of SRB, a late-exponential phase culture (O.D600 0.16 to 0.19 which corresponded to an initial cell number of 5–9×10^4 cells/mL) was exposed to various concentrations of antimicrobials for 1 hour at 30° C. One mL of cells was harvested, washed once in fresh modified Baar's medium to remove cellular debris, and resuspended in 1 mL of fresh modified Baar's medium supplemented with 10 μL each of Oxyrase (Oxyrase Inc., Mansfeld, Ohio) and 4% sodium sulphide. Aliquots of 450 μL were dispensed in 500 μL sterile eppendorf tubes and appropriate amounts of antimicrobials added and incubated at 30° C. The effectiveness of treatment was determined by the multiple-tube most-probable-number (MPN) fermentation technique. (Anonymous. Multiple-tube fermentation technique for members of the coliform group, pp. 9–45 to 9–51. In A. E. Greenberg, L. S. Clesceri, and A. D. Eaton (eds.), Standard Methods for the Examination of Water and Wastewater, 18 ed. American Public Health Association, American Water Works Association, and Water Pollution Control Federation, New York (1992)) (hereafter, Greenberg, 1992).
# (§3) The MPN test for enumerating SRB was performed in three 12 mL tubes with a 1000 μL inoculum of SRB, three 12 mL tubes with a 500 μL inoculum, and three 12 mL tubes with a 100 μL inoculum. All nine tubes contained a final volume of 10 mL of modified Baar's medium supplemented with 100 μL each of 4% sodium sulfide and Oxyrase (Oxyrase Inc., Mansfeld, Ohio). The tubes were monitored for 72 hours to determine the number of tubes that were positive for growth. Growth was determined by the increase in culture turbidity, and the MPN index/mL was calculated using the Thomas formula. (Greenberg 1992).
# [1] = system: SRB (D. vulgaris) on SAE 1018 mild steel; experiment: Continuous reactor with SAE 1018 mild steel and SRB, electrochemical impedance spectroscopy
# From the text: (§4) A continuous reactor was used to develop biofilms on metal surfaces as previously described (Jayaraman et al., 1997c). Electrochemical impedance spectroscopy (EIS) was used to obtain impedance data in at least duplicate experiments using a Solarton-Schlumberger electrochemical measurement unit (SI 1280, Schlumberger Technical Instruments Division, San Jose, Calif.) interfaced to a Macintosh computer (PowerMac 7100/80, Apple Computers, Cupertino, Calif.) running EISIS electrochemical experimentation software (University of California, Irvine) (THALES, a similar commercial software, can also be used). The open-circuit potential (OCP) was measured as the potential between the metal specimen and the reference electrode (Ag/AgCl), and the polarization resistance was determined as the dc limit of the impedance using the ANALEIS software developed by Mansfeld et al. (ASTM Special Technical Protocol 1154:186 (1992)). Continuous culture corrosion rates were estimated from the experimental polarization resistance Rp based on the Stern-Geary equation Rp=B/Icorr, where B is a parameter depending on the Tafel slopes and icorr is the corrosion current density which can be converted into a corrosion rate using Faraday's law (Mansfeld, F., The polarization resistance technique for measuring corrosion currents, In Fontana, M. G., Staehle, R. W. (ed.), Advances in Corrosion Science and Technology, Plenum Press, New York (1976)).
# A 3% (vol/vol) SRB inoculum (culture age 24–48 hours) was added to the reactor after 3 to 5 days of aerobic biofilm development. […] All antimicrobials were simultaneously added to the nutrient feed and the reactor at appropriate concentrations.
# D. vulgaris [2] = experiment: Susceptibility of SRB cultures to antibiotics and inorganics; format: cell-based
# Method: (§5) D. vulgaris and D. gigas were incubated in the presence of various antimicrobial peptides, and their viability after one-hour exposure was determined. […] D. gigas was inhibited by anthraquinone at 100 μg/mL (Cooling et al., 1996), and both SRB were inhibited by sodium molybdate at 100 μg/mL. This is similar to the observation of Saleh, et al., 1964, who surveyed nearly 200 compounds for their SRB-inhibitory activity and noted that SRB show a high degree of resistance to inhibitory compounds (Id.).
# [3] = system: SRB (D. vulgaris) on 304 stainless steel; experiment: Continuous reactor with 304 stainless steel and SRB, electrochemical impedance spectroscopy
# Method: Batch culture corrosion experiments using SAE 1018 mild steel coupons (2.5 cm diameter, 1.2 mm thick) were performed in triplicates in 250 mL Erlenmeyer flasks at 30° C. without shaking as described previously (Jayaraman et al., 1997a). A continuous reactor (Jayaraman et al., 1997c) was also used to develop biofilms on 304 stainless steel and monitor corrosion using electrochemical impedance spectroscopy (EIS) in a minimum of two independent reactors using a Solarton-Schlumberger electrochemical measurement unit (SI 1280, Schlumberger Technical Instruments Division, San Jose, Calif.) interfaced to a Macintosh computer (PowerMac 7100/80, Apple Computers, Cupertino, Calif.) running EISIS electrochemical experimentation software (University of California, Irvine) (similar commercial software, THALES, can also be used). The open circuit potential (OCP) was measured as the potential between the metal specimen and a Ag/AgCl reference electrode, and the polarization resistance (Rp) was determined as the low-frequency value of the impedance (where the imaginary part of the impedance was zero or negligible). Continuous culture corrosion rates were estimated as the inverse of the polarization resistance (Macdonald, D. D. and M. C. H. McCubre, Applications of impedance spectroscopy, p. 262–267. In J. R. Macdonald (ed.), Impedance spectroscopy: Emphasizing solid materials and systems, John Wiley & Sons, New York (1987); Stem, M., Journal of Electrochemical Society, 105(11):638–647 (1958)).
# as §4, with “Continuous culture corrosion rates were estimated from the experimental polarization resistance Rp based on the Stern-Geary equation Rp=B/Icorr, where B is a parameter depending on the Tafel slopes and icorr is the corrosion current density which can be converted into a corrosion rate using Faraday's law (Mansfeld, F., The polarization resistance technique for measuring corrosion currents, In Fontana, M. G., Staehle, R. W. (ed.), Advances in Corrosion Science and Technology, Plenum Press, New York (1976)).” left out
# D. vulgaris [4] = details: literature (Saleh 1964/Postgate 1984; Odom and Singleton 1993), suspension cultures; cited from earlier work
# P. fragi K = experiment: Growth of P. fragi K in overnight suspension cultures with antimicrobials; format: cell-based; details: 100 μg/mL, overnight suspension culture
# D. gigas = experiment: Susceptibility of SRB cultures to antibiotics and inorganics; format: cell-based
# Method: as §5
# B. subtilis BE1500 = experiment: Susceptibility of host strains to purified antimicrobials (plate counts); format: cell-based
# Method: (§6) To determine the susceptibility of the hosts B. subtilis BE1500 and B. polymyxa to the expressed antimicrobials, these strains were grown from a single colony in 25 mL of LB medium with shaking at 37° C. to an O.D600 of 0.40–0.45. One mL aliquots were collected, washed with fresh LB medium and resuspended in 100 μL fresh LB medium in sterile eppendorf tubes. The antimicrobials indolicidin and bactenecin were added (50–100 μg/mL) and the tubes were incubated at 30° C. for one hour without shaking. Appropriate dilutions were spread on LB agar plates and incubated overnight at 37° C. to determine the extent of survival. The results were confirmed by performing two independent experiments.
# B. polymyxa 10401 = experiment: as above; format: cell-based; details: 50 μg/mL, one hour exposure at 30° C.
# Method: as §6
# B. subtilis WB600 = experiment: as above; format: cell-based; details: 50 μg/mL, one hour exposure at 30° C.
# Escherichia coli = details: 100 μg/mL; cited from earlier work
# D. gigas (ATCC 19364) = experiment: SRB inhibitory assay: viability after one-hour exposure, MPN technique; format: cell-based; details: 100 μg/mL, one-hour exposure
# Method: as §1, §2, §3
# [5] = 100 μg/mL added to P. fragi K biofilm 24 hours before D. vulgaris
# [6] = 100 μg/mL added to P. fragi K biofilm before D. vulgaris
compound,measurement,setting,value
"CC[C@H](C)[C@H](N)C(=O)N[C@@H](CC(C)C)C(=O)N1CCC[C@H]1C(=O)N[C@@H](Cc1c[nH]c2ccccc12)C(=O)N[C@@H](CCCCN)C(=O)N[C@@H](Cc1c[nH]c2ccccc12)C(=O)N1CCC[C@H]1C(=O)N[C@@H](Cc1c[nH]c2ccccc12)C(=O)N[C@@H](Cc1c[nH]c2ccccc12)C(=O)N1CCC[C@H]1C(=O)N[C@@H](Cc1c[nH]c2ccccc12)C(=O)N[C@@H](CCCN=C(N)N)C(=O)N[C@@H](CCCN=C(N)N)C(N)=O [Ind-NH2, indolicidin]",reduction of viability,"D. vulgaris (ATCC 29579); 25 μg/mL, late-exponential-phase culture",99.3%
CC1(C)S[C@@H]2[C@H](NC(=O)[C@H](N)c3ccccc3)C(=O)N2[C@H]1C(=O)O [ampicillin],"effect on D. vulgaris, in words",[1]; [5],completely inhibited
same,time after D. vulgaris addition without change / increase in Rp,[1]; [6],≥ 100 h
same,"effect on SRB, in words",[1]; antimicrobial added after SRB growth on mild steel,did not change Rp; also recorded: no inhibition of SRB
same,time to onset of SRB-induced corrosion after ampicillin containing medium was discontinued,[1]; mild steel reactors,≤ 36 h
same,concentration that inhibits the strain,D. vulgaris [2],20 µg/mL
same,"effect on D. vulgaris, in words",[3]; [5],completely inhibited
same,time after D. vulgaris addition without change in impedance spectra and Rp,[3]; [6],≥ 100 h
same,"effect on SRB, in words","[3]; antimicrobial added to dual-culture reactor after SRB, ampicillin 200 μg/mL, chloramphenicol 100 μg/mL, ammonium molybdate 200 μg/mL",SRB had not been killed
same,concentration that inhibits D. vulgaris,D. vulgaris [4],1 µg/mL
same,"growth of P. fragi K, in words",P. fragi K,grew to saturation
O=C1c2ccccc2C(=O)c2ccccc21 [anthraquinone],concentration that inhibits the strain,D. gigas,100 µg/mL
CC[C@H](C)[C@@H]1NC(=O)[C@H](CCCNC(=N)N)NC(=O)[C@@H](NC(=O)[C@H](CC(C)C)NC(=O)[C@@H](N)CCCNC(=N)N)CSSC[C@@H](C(=O)N[C@@H](CCCNC(=N)N)C(=O)O)NC(=O)[C@H](C(C)C)NC(=O)[C@H](CCCNC(=N)N)NC(=O)[C@H]([C@@H](C)CC)NC(=O)[C@H](C(C)C)NC(=O)[C@H](C(C)C)NC1=O [bactenecin] (H-RLCRIVVIRVCR-OH; disulfide 3-11; N-terminus and C-terminus assumed),factor by which the strain is more resistant to bactenecin than to indolicidin,B. subtilis BE1500,60
same,Fold-reduction in cell number,"B. subtilis BE1500; 50 μg/mL, one hour exposure at 30° C.",100
same,Fold-reduction in cell number,B. polymyxa 10401,2
same,Fold-reduction in cell number,B. subtilis WB600,400
same,inhibition,Escherichia coli,95%
O=C(N[C@H](CO)[C@H](O)c1ccc([N+](=O)[O-])cc1)C(Cl)Cl [chloramphenicol],concentration that inhibits the strain,D. vulgaris [2],20 µg/mL
same,concentration that inhibits D. vulgaris,D. vulgaris [4],3 µg/mL
CC[C@H](C)CCCCC(=O)N[C@@H](CCN)C(=O)N[C@H](C(=O)N[C@@H](CCN)C(=O)N[C@H]1CCNC(=O)[C@H]([C@@H](C)O)NC(=O)[C@H](CCN)NC(=O)[C@H](CCN)NC(=O)[C@H](CC(C)C)NC(=O)[C@@H](Cc2ccccc2)NC(=O)[C@H](CCN)NC1=O)[C@@H](C)O [polymyxin B] (X1-[Dab]T[Dab][Dab][Dab][dF]L[Dab][Dab]T; lactam 4-C (inferred); N-terminus assumed),reduction of viability,D. vulgaris (ATCC 29579); 100 μg/mL,approximately 90%
same,reduction of viability,D. gigas (ATCC 19364),approximately 90%
same,concentration that inhibits D. vulgaris,D. vulgaris [4],100 µg/mL
[Na+].[Na+].[O]=[Mo](=[O])([O-])[O-] [sodium molybdate],concentration that inhibits the strain,D. vulgaris [2],100 µg/mL
same,concentration that inhibits the strain,D. gigas,100 µg/mL
gramicidin D,reduction of viability,D. vulgaris (ATCC 29579); 100 μg/mL,approximately 90%
same,reduction of viability,D. gigas (ATCC 19364),approximately 90%
